# Assay results from article PMC5432238, “Pre-clinical evaluation of small molecule LOXL2 inhibitors in breast cancer” (Oncotarget, 2017).
# Columns and labels:
# [1] = biological target: T1, recombinant LOXL2 (Homo sapiens, UniProt Q9Y4K0); assay: Amplex Red activity/inhibition assay, recombinant LOXL2; assay type: biochemical; settings: putrescine substrate
# T1 construct: purchased R&D Systems
# T1 sequence (Q9Y4K0 26-774): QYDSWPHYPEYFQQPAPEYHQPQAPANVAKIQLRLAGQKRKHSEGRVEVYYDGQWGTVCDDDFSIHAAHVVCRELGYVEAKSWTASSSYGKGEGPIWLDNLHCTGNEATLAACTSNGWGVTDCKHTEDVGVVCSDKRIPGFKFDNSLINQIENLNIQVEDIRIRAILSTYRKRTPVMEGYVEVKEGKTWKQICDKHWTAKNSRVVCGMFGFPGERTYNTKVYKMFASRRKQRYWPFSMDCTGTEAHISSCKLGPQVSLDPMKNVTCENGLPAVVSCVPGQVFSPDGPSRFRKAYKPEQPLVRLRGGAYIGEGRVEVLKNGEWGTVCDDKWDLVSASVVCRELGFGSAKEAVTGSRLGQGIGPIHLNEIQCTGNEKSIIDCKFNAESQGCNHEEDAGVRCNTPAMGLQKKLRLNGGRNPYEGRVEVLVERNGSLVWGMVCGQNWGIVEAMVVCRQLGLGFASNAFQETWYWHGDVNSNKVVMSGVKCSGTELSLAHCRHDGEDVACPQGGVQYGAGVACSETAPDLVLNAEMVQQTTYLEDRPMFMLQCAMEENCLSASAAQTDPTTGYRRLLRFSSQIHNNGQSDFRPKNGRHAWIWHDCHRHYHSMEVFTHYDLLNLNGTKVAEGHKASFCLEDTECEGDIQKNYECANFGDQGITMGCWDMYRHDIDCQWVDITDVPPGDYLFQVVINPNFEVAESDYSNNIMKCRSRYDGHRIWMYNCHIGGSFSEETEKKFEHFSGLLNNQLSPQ
# Protocol: (§1) The standard amplex red assay has been used as previously described using putrescine as a substrate and native ´fibroblast derived LOX, which was prepared by collecting the supernatant of IMR90 cells, followed by a size filtration > 10 kDa for concentration and < 50 kDa to separate from LOXL2, or recombinant LOXL2 as enzyme (R&D Systems).
# [2] = biological target: T2, native human LOX enzyme (Homo sapiens, UniProt P28300); assay: Amplex Red activity/inhibition assay, native fibroblast-derived LOX; assay type: biochemical; settings: native fibroblast (IMR90) derived LOX; putrescine substrate
# T2 construct: fibroblast derived LOX, which was prepared by collecting the supernatant of IMR90 cells; endogenous in cells; host or cells: IMR90 cells (supernatant, size filtered > 10 kDa and < 50 kDa)
# T2 sequence (P28300 169-417): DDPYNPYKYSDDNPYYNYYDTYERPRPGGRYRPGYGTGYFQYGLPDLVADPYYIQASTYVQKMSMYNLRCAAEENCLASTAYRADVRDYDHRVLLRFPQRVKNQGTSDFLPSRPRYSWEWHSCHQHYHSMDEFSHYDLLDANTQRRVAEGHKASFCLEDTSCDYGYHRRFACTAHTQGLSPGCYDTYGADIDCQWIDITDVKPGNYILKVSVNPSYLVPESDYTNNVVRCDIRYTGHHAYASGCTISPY
# Protocol: as §1
smiles,measurement,setting,value
"N#CCCN [BAPN, β-aminopropionitrile]",pIC50 ± SD against recombinant LOXL2 enzyme,[1],6.4 ± 0.1
same,pIC50 ± SD against native human LOX enzyme,[2],5.5 ± 0.1
